Results from ChEMBL document CHEMBL5390219, “Benzyl stapled modification and anticancer activity of antimicrobial peptide A4K14-Citropin 1.1” (Bioorg Med Chem Lett, 2023).
pIC50: −log10 of the molar value. Active and inactive are the calls of the source. No cut-off for these calls is given here. *1 amine or outer side, *2 acyl side, *3 side chain or, on linkers, in order; H or OH if unused. Where a SMILES comes first, the peptide text is derived from it. Bridges are numbered along the chain shown (N, C = ends). Biphenyl(4,4'-CH2)2 = c1cc(-c2ccc(C[*:2])cc2)ccc1C[*:1]; mXylylene = c1cc(C[*:1])cc(C[*:2])c1; oXylylene = c1ccc(C[*:2])c(C[*:1])c1; pXylylene = c1cc(C[*:2])ccc1C[*:1]

Legend:
MCF7 [1] = assay: Anti-cancer activity against human MCF7 assessed as cell viability incubated for 48 hrs by CCK-8 assay; assay type: functional, cell-based; conditions: MCF7, 48 h
U-87 MG = assay: Anti-cancer activity against human U-87 MG assessed as cell viability incubated for 48 hrs by CCK-8 assay; assay type: functional, cell-based, U-87MG ATCC
HCT-116 = assay: Anti-cancer activity against human HCT-116 assessed as cell viability incubated for 48 hrs by CCK-8 assay; assay type: functional, cell-based; conditions: HCT-116, 48 h
MCF7 [2] = assay: Inhibition of cell migration in human MCF7 cells at 5 uM incubated for 36 hrs by crystal violet staining based microscopy analysis; assay type: functional
[3] = Stability of a compound in human serum assessed as half life at 91 mg/mL incubated for 0 to 144 hrs by HPLC-UV analysis; assay type: ADME, cell-free; conditions: time 0-144 hrs
MCF7 [4] = assay: Induction of cell death in human MCF7 cells assessed as reduction in number of viable cells at 10 uM incubated for 24 hrs by calcein-AM/PI staining based analysis; assay type: functional
MCF7 [5] = assay: Inhibition of cell migration in human MCF7 cells at 5 uM incubated for 24 hrs by scratch wound healing assay; assay type: functional, cell-based
MCF7 [6] = assay: Induction of apoptosis in human MCF7 cells assessed as viable cells at 5 uM incubated for 24 hrs by Annexin V-FITC/PI staining based flow cytometry analysis (reference value: 93.51%); assay type: functional; conditions: read-out: Activity
MCF7 [7] = assay: Induction of apoptosis in human MCF7 cells assessed as early apoptotic cells at 5 uM incubated for 24 hrs by Annexin V-FITC/PI staining based flow cytometry analysis (reference value: 1.01%); assay type: functional
MCF7 [8] = assay: Induction of apoptosis in human MCF7 cells assessed as late apoptotic cells at 5 uM incubated for 24 hrs by Annexin V-FITC/PI staining based flow cytometry analysis (reference value: 3.54%); assay type: functional
MCF7 [9] = assay: Induction of apoptosis in human MCF7 cells assessed as necrotic cells at 5 uM incubated for 24 hrs by Annexin V-FITC/PI staining based flow cytometry analysis (reference value: 1.94%); assay type: functional
MCF7 [10] = assay: Induction of cell death in human MCF7 cells at 10 uM incubated for 24 hrs by calcein-AM/PI staining based analysis; assay type: functional

Molecule	pIC50 (MCF7 [1])	pIC50 (U-87 MG)	pIC50 (HCT-116)	half-life at 91 mg/mL [3] [h]	Activity (MCF7 [2])	Activity (MCF7 [4])	Activity (MCF7 [5])	viability at 5 µM (MCF7 [6]) [%]	Activity (MCF7 [7]) [%]	Activity (MCF7 [8]) [%]	Activity (MCF7 [9]) [%]	Activity (MCF7 [10])
CC[C@H](C)[C@H](NC(=O)[C@@H](NC(=O)[C@H](CO)NC(=O)[C@H](C)NC(=O)[C@@H](NC(=O)[C@H](CCCCN)NC(=O)[C@H](CCCCN)NC(=O)[C@@H]1CSCc2ccc(cc2)CSC[C@H](NC(=O)CNC(C)=O)C(=O)N[C@@H](Cc2ccccc2)C(=O)N[C@@H](C)C(=O)N[C@@H](C(C)C)C(=O)N1)C(C)C)C(C)C)C(=O)N[C@@H](CCCCN)C(=O)NCC(=O)N[C@@H](CC(C)C)C(N)=O (Ac-GCFAVCKKVASVIKGL-NH2; linker 2-6 via pXylylene)	4.27	4.28	3.64	–	–	–	–	–	–	–	–	–
CC(=O)NCC(=O)N[C@@H](CC(C)C)C(=O)N[C@@H](Cc1ccccc1)C(=O)N[C@@H](C)C(=O)N[C@H](C(=O)N[C@H]1CSCc2ccc(cc2)-c2ccc(cc2)CSC[C@@H](C(=O)N[C@@H](CCCCN)C(=O)NCC(=O)N[C@@H](CC(C)C)C(N)=O)NC(=O)[C@H](C(C)C)NC(=O)[C@H](CO)NC(=O)[C@H](C)NC(=O)[C@H](C(C)C)NC(=O)[C@H](CCCCN)NC(=O)[C@H](CCCCN)NC1=O)C(C)C (Ac-GLFAVCKKVASVCKGL-NH2; linker 6-13 via Biphenyl(4,4'-CH2)2)	5.13	5.04	5.13	–	–	–	–	–	–	–	–	–
CC[C@H](C)[C@H](NC(=O)[C@@H](NC(=O)[C@H](CO)NC(=O)[C@@H]1CSCc2ccccc2CSC[C@H](NC(=O)[C@@H](NC(=O)[C@H](C)NC(=O)[C@H](Cc2ccccc2)NC(=O)[C@H](CC(C)C)NC(=O)CNC(C)=O)C(C)C)C(=O)N[C@@H](CCCCN)C(=O)N[C@@H](CCCCN)C(=O)N[C@@H](C(C)C)C(=O)N1)C(C)C)C(=O)N[C@@H](CCCCN)C(=O)NCC(=O)N[C@@H](CC(C)C)C(N)=O (Ac-GLFAVCKKVCSVIKGL-NH2; linker 6-10 via oXylylene)	5.18	5.20	5.23	143	Active	Active	Active	43.2	15.92	37.02	3.9	–
CC[C@H](C)[C@H](NC(=O)[C@@H](NC(=O)[C@H](C)NC(=O)[C@H](Cc1ccccc1)NC(=O)[C@H](CC(C)C)NC(=O)CNC(C)=O)C(C)C)C(=O)N[C@@H](CCCCN)C(=O)N[C@@H](CCCCN)C(=O)N[C@H]1CSCc2ccccc2CSC[C@@H](C(=O)N[C@@H](CCCCN)C(=O)NCC(=O)N[C@@H](CC(C)C)C(N)=O)NC(=O)[C@H](C(C)C)NC(=O)[C@H](CO)NC(=O)[C@H](C)NC1=O (Ac-GLFAVIKKCASVCKGL-NH2; linker 9-13 via oXylylene)	5.06	5.07	5.10	–	–	–	–	–	–	–	–	–
CC[C@H](C)[C@@H]1NC(=O)[C@@H](NC(=O)[C@H](C)NC(=O)[C@H](Cc2ccccc2)NC(=O)[C@H](CC(C)C)NC(=O)CNC(C)=O)CSCc2cccc(c2)CSC[C@@H](C(=O)N[C@@H](C)C(=O)N[C@@H](CO)C(=O)N[C@H](C(=O)N[C@H](C(=O)N[C@@H](CCCCN)C(=O)NCC(=O)N[C@@H](CC(C)C)C(N)=O)[C@@H](C)CC)C(C)C)NC(=O)[C@H](CCCCN)NC(=O)[C@H](CCCCN)NC1=O (Ac-GLFACIKKCASVIKGL-NH2; linker 5-9 via mXylylene)	5.03	4.93	5.08	–	–	–	–	–	–	–	–	–
CC[C@H](C)[C@H](NC(=O)[C@@H](NC(=O)[C@H](C)NC(=O)[C@H](Cc1ccccc1)NC(=O)[C@H](CC(C)C)NC(=O)CNC(C)=O)C(C)C)C(=O)N[C@@H](CCCCN)C(=O)N[C@@H](CCCCN)C(=O)N[C@H]1CSCc2ccc(cc2)CSC[C@@H](C(=O)N[C@@H](CCCCN)C(=O)NCC(=O)N[C@@H](CC(C)C)C(N)=O)NC(=O)[C@H](C(C)C)NC(=O)[C@H](CO)NC(=O)[C@H](C)NC1=O (Ac-GLFAVIKKCASVCKGL-NH2; linker 9-13 via pXylylene)	4.49	4.59	3.94	–	–	–	–	–	–	–	–	–
CC[C@H](C)[C@H](NC(=O)[C@@H](NC(=O)[C@H](CO)NC(=O)[C@H](C)NC(=O)[C@@H](NC(=O)[C@H](CCCCN)NC(=O)[C@H](CCCCN)NC(=O)[C@@H]1CSCc2ccccc2CSC[C@H](NC(=O)CNC(C)=O)C(=O)N[C@@H](Cc2ccccc2)C(=O)N[C@@H](C)C(=O)N[C@@H](C(C)C)C(=O)N1)C(C)C)C(C)C)C(=O)N[C@@H](CCCCN)C(=O)NCC(=O)N[C@@H](CC(C)C)C(N)=O (Ac-GCFAVCKKVASVIKGL-NH2; linker 2-6 via oXylylene)	4.90	4.94	4.86	–	–	–	–	–	–	–	–	–
CC[C@H](C)[C@@H]1NC(=O)[C@@H](NC(=O)[C@H](C)NC(=O)[C@H](Cc2ccccc2)NC(=O)[C@H](CC(C)C)NC(=O)CNC(C)=O)CSCc2ccc(cc2)CSC[C@@H](C(=O)N[C@@H](C)C(=O)N[C@@H](CO)C(=O)N[C@H](C(=O)N[C@H](C(=O)N[C@@H](CCCCN)C(=O)NCC(=O)N[C@@H](CC(C)C)C(N)=O)[C@@H](C)CC)C(C)C)NC(=O)[C@H](CCCCN)NC(=O)[C@H](CCCCN)NC1=O (Ac-GLFACIKKCASVIKGL-NH2; linker 5-9 via pXylylene)	4.93	4.89	4.89	–	–	–	–	–	–	–	–	–

Continued by rising pIC50 (MCF7 [1]), values first:

pIC50 (MCF7 [1])	pIC50 (U-87 MG)	pIC50 (HCT-116)	half-life at 91 mg/mL [3] [h]	Molecule	Activity (MCF7 [2])	Activity (MCF7 [4])	Activity (MCF7 [5])	viability at 5 µM (MCF7 [6]) [%]	Activity (MCF7 [7]) [%]	Activity (MCF7 [8]) [%]	Activity (MCF7 [9]) [%]	Activity (MCF7 [10])
4.26	4.24	3.98	–	CC[C@H](C)[C@H](NC(=O)[C@@H](NC(=O)[C@H](CO)NC(=O)[C@H](C)NC(=O)[C@@H](NC(=O)[C@H](CCCCN)NC(=O)[C@H](CCCCN)NC(=O)[C@@H]1CSCc2cccc(c2)CSC[C@H](NC(=O)CNC(C)=O)C(=O)N[C@@H](Cc2ccccc2)C(=O)N[C@@H](C)C(=O)N[C@@H](C(C)C)C(=O)N1)C(C)C)C(C)C)C(=O)N[C@@H](CCCCN)C(=O)NCC(=O)N[C@@H](CC(C)C)C(N)=O (Ac-GCFAVCKKVASVIKGL-NH2; linker 2-6 via mXylylene)	–	–	–	–	–	–	–	–
4.80	4.81	4.87	–	CC[C@H](C)[C@H](NC(=O)[C@@H](NC(=O)[C@H](CO)NC(=O)[C@@H]1CSCc2ccc(cc2)CSC[C@H](NC(=O)[C@@H](NC(=O)[C@H](C)NC(=O)[C@H](Cc2ccccc2)NC(=O)[C@H](CC(C)C)NC(=O)CNC(C)=O)C(C)C)C(=O)N[C@@H](CCCCN)C(=O)N[C@@H](CCCCN)C(=O)N[C@@H](C(C)C)C(=O)N1)C(C)C)C(=O)N[C@@H](CCCCN)C(=O)NCC(=O)N[C@@H](CC(C)C)C(N)=O (Ac-GLFAVCKKVCSVIKGL-NH2; linker 6-10 via pXylylene)	–	–	–	–	–	–	–	–
4.85	4.84	4.79	6.81	Ac-GLFAVIKKVASVIKGL-NH2	inactive	–	–	77.5	2.44	11.45	8.31	Active
4.87	4.84	4.98	–	CC[C@H](C)[C@H](NC(=O)[C@@H](NC(=O)[C@H](CO)NC(=O)[C@@H]1CSCc2cccc(c2)CSC[C@H](NC(=O)[C@@H](NC(=O)[C@H](C)NC(=O)[C@H](Cc2ccccc2)NC(=O)[C@H](CC(C)C)NC(=O)CNC(C)=O)C(C)C)C(=O)N[C@@H](CCCCN)C(=O)N[C@@H](CCCCN)C(=O)N[C@@H](C(C)C)C(=O)N1)C(C)C)C(=O)N[C@@H](CCCCN)C(=O)NCC(=O)N[C@@H](CC(C)C)C(N)=O (Ac-GLFAVCKKVCSVIKGL-NH2; linker 6-10 via mXylylene)	–	–	–	–	–	–	–	–
5.08	4.97	4.96	–	CC[C@H](C)[C@H](NC(=O)[C@@H](NC(=O)[C@H](C)NC(=O)[C@H](Cc1ccccc1)NC(=O)[C@H](CC(C)C)NC(=O)CNC(C)=O)C(C)C)C(=O)N[C@@H](CCCCN)C(=O)N[C@@H](CCCCN)C(=O)N[C@H]1CSCc2cccc(c2)CSC[C@@H](C(=O)N[C@@H](CCCCN)C(=O)NCC(=O)N[C@@H](CC(C)C)C(N)=O)NC(=O)[C@H](C(C)C)NC(=O)[C@H](CO)NC(=O)[C@H](C)NC1=O (Ac-GLFAVIKKCASVCKGL-NH2; linker 9-13 via mXylylene)	–	–	–	–	–	–	–	–
5.56	5.55	5.30	143	CC[C@H](C)[C@@H]1NC(=O)[C@@H](NC(=O)[C@H](C)NC(=O)[C@H](Cc2ccccc2)NC(=O)[C@H](CC(C)C)NC(=O)CNC(C)=O)CSCc2ccccc2CSC[C@@H](C(=O)N[C@@H](C)C(=O)N[C@@H](CO)C(=O)N[C@H](C(=O)N[C@H](C(=O)N[C@@H](CCCCN)C(=O)NCC(=O)N[C@@H](CC(C)C)C(N)=O)[C@@H](C)CC)C(C)C)NC(=O)[C@H](CCCCN)NC(=O)[C@H](CCCCN)NC1=O (Ac-GLFACIKKCASVIKGL-NH2; linker 5-9 via oXylylene)	Active	Active	Active	1.1	22.39	75.52	1.35	–
